From patent publication US20150025118A1, “ACTIVE COMPOUND COMPOSITIONS FOR VECTOR CONTROL OF INSECTICIDE-RESISTANT PESTS” (priority 2012, published 2015)

What was measured:
[1] = test system: Anopheles gambiae (target-site-resistant and metabolic-resistant strain: RSPH); assay: Target-site-resistant and metabolic-resistant Anopheles test: treated glazed tile, knock-down; assay type: in vivo
Protocol: (§1) The exposition time is 30 minutes.
(§2) 0.25 hours, 0.5 hours, 1 hour, 2 hour, 3 hour, 4 hour and 24 hours after contact to the treated surface, the knock-down proportion of the test animals in % is determined. Here, 100% means that all mosquitoes have been killed; 0% means that none of the mosquitoes has been killed.

[2] = test system: Anopheles funestus metabolic-resistant strain FUMOZ-R; assay: Metabolic-resistant Anopheles test: treated glazed tile, knock-down; assay type: in vivo
Protocol: as §1, §2

[3] = Dinotefuran 0.8 mg/m^2 alone, 0.25 h after contact
[4] = Dinotefuran 0.8 mg/m^2 alone, 0.5 h after contact
[5] = Dinotefuran 0.8 mg/m^2 alone, 1 h after contact
[6] = Dinotefuran 0.8 mg/m^2 alone, 2 h after contact
[7] = Dinotefuran 0.8 mg/m^2 alone, 3 h after contact
[8] = Dinotefuran 0.8 mg/m^2 alone, 4 h after contact
[9] = Dinotefuran 0.8 mg/m^2 alone, 24 h after contact
[10] = Dinotefuran 4 mg/m^2 alone, 0.25 h after contact
[11] = Dinotefuran 4 mg/m^2 alone, 0.5 h after contact
[12] = Dinotefuran 4 mg/m^2 alone, 1 h after contact
[13] = Dinotefuran 4 mg/m^2 alone, 2 h after contact
[14] = Dinotefuran 4 mg/m^2 alone, 3 h after contact
[15] = Dinotefuran 4 mg/m^2 alone, 4 h after contact
[16] = Dinotefuran 4 mg/m^2 alone, 24 h after contact

## CN/C(=N/CC1CCOC1)N[N+](=O)[O-] (stereo not shown) [Dinotefuran, dinotefuran]
[1]; [3]
  Effect % (knock-down): 10%
[1]; [4]
  Effect % (knock-down): 5%
[1]; [5]
  Effect % (knock-down): 5%
[1]; [6]
  Effect % (knock-down): 10%
[1]; [7]
  Effect % (knock-down): 20%
[1]; [8]
  Effect % (knock-down): 30%
[1]; [9]
  Effect % (knock-down): 35%
[1]; [10]
  Effect % (knock-down): 15%
[1]; [11]
  Effect % (knock-down): 5%
[1]; [12]
  Effect % (knock-down): 15%
[1]; [13]
  Effect % (knock-down): 40%
[1]; [14]
  Effect % (knock-down): 35%
[1]; [15]
  Effect % (knock-down): 65%
[1]; [16]
  Effect % (knock-down): 65%
[2]; [3]
  Effect % (knock-down): 0%
[2]; [4]
  Effect % (knock-down): 0%
[2]; [5]
  Effect % (knock-down): 5%
[2]; [6]
  Effect % (knock-down): 0%
[2]; [7]
  Effect % (knock-down): 10%
[2]; [8]
  Effect % (knock-down): 15%
[2]; [9]
  Effect % (knock-down): 35%
[2]; [10]
  Effect % (knock-down): 15%
[2]; [11]
  Effect % (knock-down): 10%
[2]; [12]
  Effect % (knock-down): 10%
[2]; [13]
  Effect % (knock-down): 15%
[2]; [14]
  Effect % (knock-down): 30%
[2]; [15]
  Effect % (knock-down): 40%
[2]; [16]
  Effect % (knock-down): 55%
